Laboratory results taken from paper PMC10721786, “Development of a potent benzonitrile-based inhibitor of glutaminyl-peptide cyclotransferase-like protein (QPCTL) with antitumor efficacy” (Signal Transduction and Targeted Therapy, 2023).

What was measured:
B16F10 cells [1] = test: In vitro phagocytosis of B16F10 cells by mouse macrophages; format: cell-based
Protocol: Eight-week-old C57BL/6 wild-type mice were obtained from Shanghai Slaccas Laboratory Animal Co., Ltd.. To obtain bone marrow derived macrophage (BMDM), femora and tibiae were flushed with ice-cold PBS, and erythrocytes were lysed with RBC lysis buffer. Then bone marrow cells were cultured in DMEM medium with 10 % FBS and 100 U/ mL penicillin, and 100 μg/ mL streptomycin in the presence of 50 ng/ mL mouse M-CSF (Macrophage-Colony Stimulating Factor) (PeproTech), 0.1 mM Sodium pyruvate (Gibco, Cat. # 11360-70) and 10 mM HEPES (Gibco, Cat. # 15630-080) for 7 days.
Phagocytosis assay were conducted as previously described. Briefly, macrophages were plated 1 x 10^5 cells per well in a 48-well plate in complete DMEM medium, supplemented with M-CSF overnight before the experiment. Cancer cells were stained with 5 μM CFSE at 37 °C for 10 min. Each phagocytotic reaction reported in this work was performed by co-culture of target cells and macrophages for 4 hours at 37 °C. Macrophages were identified with APC-labeled anti-F4/80 (Biolegend, Cat. # 123116), and flow cytometry (BD FACSCanto II, San Jose, CA) was performed. Phagocytosis was calculated as the percentage of CFSE^+F4/80^+ cells (Q2) among CFSE^+ cells (Q2+Q3): phagocytosis (%) = [Q2 / (Q2+ Q3)] x100 %.

Raji and B16F10 cells = test: Cell viability (CCK-8) in Raji and B16F10 cells; format: cell-based; conditions: Fig. S5
Protocol: Raji cells (5000 cells/well), B16F10 cells (3000 cells/well) and BMDM (10000 cells/well) were plated in 96-well and cell viability was examined at the time points shown in the figures, with the help of Cell Counting Kit 8 (CCK-8) (Share-bio, Cat. # B-CCK8) according to the manufacturer’s recommendations.

CD47 = test: Overall cell surface CD47 (hCD47-B6H12 binding) in HEK293T and Raji cells; format: cell-based, human; conditions: 100 nM, 48 h
Protocol: Binding to cell surface CD47 was assessed by staining cells with fluorochrome-labeled antibodies clone CC2C6 (BioLegend, Cat. # 323102) and B6H12 (Abcam, Cat. # ab134485) to human CD47 at a dilution of 1:100 in PBS containing 1% FBS (FACS buffer) for 30 min on ice, while protected from light. SIRPα binding to CD47 was assessed by incubating cells with PE labeled recombinant human SIRPα/ CD172α Protein, Fc tag (ACRO Biosystems, Cat. # SIA-HP252) or PE labeled mouse SIRPα Protein, His tag (ACRO Biosystems, Cat. # SIA-MP2H6) for 1 hour on ice, while protected from light.

B16F10 cells [2] = test: Tumor challenge: B16F10 tumors in C57BL/6 mice; format: in vivo; conditions: B16F10 in C57BL/6 mice, anti-CD3 antibody 200 µg/mouse, QP5038 25 mg/kg daily
Protocol: C57BL/6 mice were obtained from Shanghai Slaccas Laboratory Animal Co., Ltd.. Male mice were implanted subcutaneously with 1 x 10^^6 B16F10 cells resuspended in 100μL of DMEM on Day 0. Anti-PD-1 (Clone RMP1-14, BioXCell, Cat. # BE0146) or mouse IgG2a isotype control (Clone 2A3, BioXCell, Cat. # BE0089) was dosed at 80 µg per mouse intraperitoneally starting on day 12 after tumor implantation, followed by a once-a-week regimen. QPCTL inhibitor was intraperitoneally administered at 25 mg/kg once a day. Tumors were measured daily, and mice were sacrificed 24 days after tumor challenge. Tumor volumes were measured in two dimensions (length and width) and the volume was calculated using the formula, tumor size (mm^3) = (length × width^2) × 0.5.
Briefly, male mice were implanted subcutaneously with 5 x 10^5 B16F10 cells resuspended in 100 μL of DMEM on Day 0. Anti-PD-1 antibody or mouse IgG2a isotype control was dosed at 80 µg per mouse intraperitoneally starting on day 6 after tumor implantation, followed by a once-a-week regimen. QPCTL inhibitors was intraperitoneally administered at 25 mg/kg once a day since day 6. Tumors were measured every three days, and mice were sacrificed on day 15. […]
Tumor challenge with T cell depletion. […] Animal weights and tumor volumes were measured twice weekly throughout the study. […] Data were acquired on flow cytometry analyzer and analyzed using Flowjo software.

SMILES: Cn1cncc1C1CCN(c2c(C#N)cccc2-c2ccc(F)nc2)CC1 [QP5038]
- phagocytosis of B16F10 cells (B16F10 cells [1]; 10 μM inhibitor 48 h, in combination with TA99, mouse macrophages): significantly boosted
- flow cytometry quadrant Q1 (B16F10 cells [1]; 48 h, 10 µM): 34.7
- flow cytometry quadrant Q2 (CFSE+F4/80+ cells) (B16F10 cells [1]; 48 h, 10 µM): 5.39
- flow cytometry quadrant Q3 (B16F10 cells [1]; 48 h, 10 µM): 59.0
- flow cytometry quadrant Q4 (B16F10 cells [1]; 48 h, 10 µM): 0.89
- efficiency on phagocytosis compared with SEN177 and PQ912 (B16F10 cells [1]; B16F10 and Raji cells, 10 μM 48 h, Fig. 1h–k, Fig. S6): much better than that of SEN177 and PQ912
- cell viability (Raji and B16F10 cells): did not markedly impair
- overall cell surface levels of CD47 (CD47): did not alter
- enhancement of anti-PD-1 antibody-mediated tumor inhibition under T cell depletion (B16F10 cells [2]): blocked the enhancement
